One assay has as its system Daudi. The experiment in a line: CCK-8 tumor cell proliferation, Daudi. Type of assay: cell-based. The conditions noted are these: Homo sapiens, 96 h, read-out: IC50 for inhibiting the proliferation of tumor cells, Daudi. Here is the method:
(§1) Determination of half inhibitory concentration (IC50) of the compounds against tumor cells:
(§2) The tumor cells used herein were cultured in a cell culture medium listed in table 6 at 37° C. in an incubator with 5% CO2.
(§3) After the cells were treated with the compounds of the present disclosure for a period of time (the treatment times listed in Table 7), the cell viability detection reagent was added to the culture medium for cell viability assessment according to the instructions provided with the CCK-8 kit. […] The growth inhibition of the compounds of the present disclosure on cells was plotted by Prism Graphpad software, and the IC50 values of the compounds of the present disclosure were calculated therefrom.

A further assay relates to TMD8. Put plainly: CCK-8 tumor cell proliferation, TMD8. To be noted: Homo sapiens, TMD8, 72 h, read-out: IC50 for inhibiting the proliferation of tumor cells, TMD8. Format: cell-based. The method, then:
as §1, §2, §3

Another assay has as its system Kasumi-1. The experiment in a line: CCK-8 tumor cell proliferation, Kasumi-1. Format: cell-based. To be noted: Homo sapiens, Kasumi-1, 72 h, read-out: IC50 for inhibiting the proliferation of tumor cells, Kasumi-1. The method, then: as §1, §2, §3
Another assay has as its system SU-DHL-6. Put plainly: CCK-8 tumor cell proliferation, SU-DHL-6. The conditions noted are these: Homo sapiens, SU-DHL-6, 72 h, read-out: IC50 for inhibiting the proliferation of tumor cells, SU-DHL-6. Type of assay: cell-based. The method, then: as §1, §2, §3
The next assay concerns A549. Put plainly: CCK-8 tumor cell proliferation, A549. Type of assay: cell-based, Human. The conditions noted are these: A549, 96 h, read-out: IC50 for inhibiting the proliferation of tumor cells, A549. The method, then:
as §1
The tumor cells used herein were cultured in a cell culture medium listed in table 6 at 37° C. in an incubator with 5% CO2. Prior to experimentation, all cells used were correctly identified by STR profiling, and tested negative for mycoplasma through routine screenings.
IC50 values of the compounds of the present disclosure (including the compounds in Table 4 and compounds of examples 1-72) were measured using the Meilun Cell Counting Kit-S kit from Dalian Meilun Biotech Co., Ltd. Assay details are as follows: tumor cells were seeded in a 96-well plate at a density listed in Table 7. After 24 h, 100 μL of the inoculated cells were treated with 0.5 μL of the compounds of the present disclosure (including the compounds in Table 4 and compounds of examples 1-72) at 10 different successively decreasing concentrations (starting at the highest concentration of 10 μM; 5-fold serial dilutions). After the cells were treated with the compounds of the present disclosure for a period of time (the treatment times listed in Table 7), the cell viability detection reagent was added to the culture medium for cell viability assessment according to the instructions provided with the CCK-8 kit. […] The growth inhibition of the compounds of the present disclosure on cells was plotted by Prism Graphpad software, and the IC50 values of the compounds of the present disclosure were calculated therefrom.

In the next assay the test system is LNcap. Put plainly: CCK-8 tumor cell proliferation, LNcap. The conditions noted are these: 96 h, read-out: IC50 for inhibiting the proliferation of tumor cells, LNcap. Type of assay: cell-based, Human. A digest of the protocol:
(§4)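 Cells were seeded in 96-well plates and treated 24 h later with compounds at 10 concentrations, top 10 μM, 5-fold serial dilutions. Viability after the set treatment time was read with a CCK-8 kit, and IC50 was calculated from growth-inhibition curves.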

The next assay concerns WSU-DLCL2. Put plainly: CCK-8 tumor cell proliferation, WSU-DLCL2. The conditions noted are these: WSU-DLCL2, 96 h, read-out: IC50 for inhibiting the proliferation of tumor cells, WSU-DLCL2. Format: cell-based, Human. A digest of the protocol: (§5)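 Cells grown at 37° C with 5% CO2, treated with compound for line-specific times, then viability read with CCK-8. IC50 derived from plotted growth inhibition curves.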

The next assay deals with SW620. The experiment in a line: CCK-8 tumor cell proliferation, SW620. Type of assay: cell-based, Human. The conditions noted are these: SW620, 96 h, CCK-8, Table 8 (AR-based); read-out: IC50 for inhibiting the proliferation of tumor cells, SW620. The method, then: as §1, §2, §3
For another assay, the system named is PC-3. Put plainly: CCK-8 tumor cell proliferation, PC-3. Type of assay: cell-based, Human. To be noted: PC-3, 96 h, read-out: IC50 for inhibiting the proliferation of tumor cells, PC-3. Here is the method:
as §1, §2, §3

The test system of a further assay is Hep3B2.1-7. The experiment in a line: CCK-8 tumor cell proliferation, Hep3B2.1-7. Type of assay: cell-based, Human. To be noted: Hep3B2.1-7, 96 h, read-out: IC50 for inhibiting the proliferation of tumor cells, Hep3B2.1-7. A digest of the protocol:
as §4

For the next assay, the system named is MM.1R. Put plainly: CCK-8 tumor cell proliferation, MM.1R. Format: cell-based. The conditions noted are these: 72 h, read-out: IC50 for inhibiting the proliferation of tumor cells, MM.1R. Here is the method:
as §1, §2, §3

Another assay has as its system MGC80-3. The experiment in a line: CCK-8 tumor cell proliferation, MGC80-3. Format: cell-based, Human. To be noted: MGC80-3, 96 h, read-out: IC50 for inhibiting the proliferation of tumor cells, MGC80-3. In short, it runs like this: as §4
In a further assay the test system is DU-145. The experiment in a line: CCK-8 tumor cell proliferation, DU-145. Type of assay: cell-based, Human. The conditions noted are these: DU-145, 96 h, read-out: IC50 for inhibiting the proliferation of tumor cells, DU-145. In short, it runs like this: as §5
For the next assay, the system named is CCRF-CEM. The experiment in a line: CCK-8 tumor cell proliferation, CCRF-CEM. Format: cell-based, Human. To be noted: 96 h, read-out: IC50 for inhibiting the proliferation of tumor cells, CCRF-CEM. Here is the method: as §1, §2, §3

pIC50: −log10 of the molar value.

On to `Cc1nc(Nc2ncc(C(=O)Nc3c(C)cccc3Cl)s2)cc(N2CCN(CCO)CC2)n1` [Dasatinib, reference compound], for which the pIC50 with Daudi was 6.30 to 7.00; in the assay on TMD8 it was ≥ 7.30; with Kasumi-1, ≥ 7.30; in the assay on SU-DHL-6 it was ≥ 7.30.
For `N#Cc1ccc(OC2CCC(NC(=O)c3ccc(N4CCC(CN5CC6CCC(C5)N6c5cc6c(cc5F)C(=O)N(C5CCC(=O)NC5=O)C6=O)CC4)nn3)CC2)cc1Cl` (stereo not shown) [GT-02765, N-((1r,4r)-4-(3-chloro-4-cyanophenoxy)cyclohexyl)-6-(4-((8-(2-(2,6-dioxopiperidin-3-yl)-6-fluoro-1,3-dioxoisoindolin-5-yl)-3,8-diazabicyclo[3.2.1]octan-3-yl)methyl)piperidin-1-yl)pyridazine-3-carboxamide], the pIC50 in the assay with A549, in the assay on LNcap, in the assay with WSU-DLCL2, in the assay with SW620, in the assay with PC-3 and with Hep3B2.1-7 was ≥ 7.30 in each case. In addition, the pIC50 with MM.1R is 6.30 to 7.00; in the assay with MGC80-3 it was ≥ 7.30; in the assay with DU-145 it was 7.00 to 7.30.
With `N#Cc1ccc(OC2CCC(NC(=O)c3ccc(N4CCC(CN5CCN(c6cc7c(cc6F)C(=O)N(C6CCC(=O)NC6=O)C7=O)CC5)CC4)nn3)CC2)cc1Cl` (stereo not shown) [GT-03016, N-((1r,4r)-4-(3-chloro-4-cyanophenoxy)cyclohexyl)-6-(4-((4-(2-(2,6-dioxopiperidin-3-yl)-6-fluoro-1,3-dioxoisoindolin-5-yl)piperazin-1-yl-2,2,3,3,5,5,6,6-d8)methyl)piperidin-1-yl)pyridazine-3-carboxamide], the pIC50 in the assay with LNcap was 6.00 to 6.30; in the assay with WSU-DLCL2, 5.30 to 6.00; in the assay with SW620, 7.00 to 7.30; in the assay on PC-3 it was 6.00 to 6.30; with MM.1R it was 5.30 to 6.00; in the assay on MGC80-3, 6.30 to 7.00. In addition, the pIC50 in the assay with DU-145 was 6.00 to 6.30.
For `N#Cc1ccc(OC2CCC(NC(=O)c3ccc(N4C5CCC4CN(CC4CCN(c6cc7c(cc6F)C(=O)N(C6CCC(=O)NC6=O)C7=O)CC4)C5)nn3)CC2)cc1Cl` (stereo not shown) [GT-03449, N-((1r,4r)-4-(3-chloro-4-cyanophenoxy)cyclohexyl)-6-(3-((1-(2-(2,6-dioxopiperidin-3-yl)-6-fluoro-1,3-dioxoisoindolin-5-yl)piperidin-4-yl)methyl)-3,8-diazabicyclo[3.2.1]octan-8-yl)pyridazine-3-carboxamide], the pIC50 with LNcap was 7.00 to 7.30; in the assay on Hep3B2.1-7, 7.00 to 7.30; in the assay on CCRF-CEM it was 6.30 to 7.00; in the assay with MM.1R it was 6.30 to 7.00; in the assay on MGC80-3 it was 7.00 to 7.30; with DU-145, 6.00 to 6.30.
In the case of `N#Cc1ccc(OC2CCC(NC(=O)c3ccc(N4CCC(CN5CC6CC(C5)N6c5cc6c(cc5F)C(=O)N(C5CCC(=O)NC5=O)C6=O)CC4)nn3)CC2)cc1Cl` (stereo not shown) [GT-03486, N-((1r,4r)-4-(3-chloro-4-cyanophenoxy)cyclohexyl)-6-(4-((6-(2-(2,6-dioxopiperidin-3-yl)-6-fluoro-1,3-dioxoisoindolin-5-yl)-3,6-diazabicyclo[3.1.1]heptan-3-yl)methyl)piperidin-1-yl)pyridazine-3-carboxamide], the pIC50 with A549 is 6.30 to 7.00; in the assay with LNcap, 6.30 to 7.00; with WSU-DLCL2, 6.30 to 7.00; with CCRF-CEM, 6.30 to 7.00; in the assay on MM.1R it was 6.30 to 7.00; in the assay with MGC80-3, 7.00 to 7.30.
As to `Cc1nc(Nc2ncc(C(=O)Nc3c(C)cccc3Cl)s2)cc(N2CCC(CN3C4CCC3CN(c3cc5c(cc3F)C(=O)N(C3CCC(=O)NC3=O)C5=O)C4)CC2)n1` (stereo not shown) [GT-03537, N-(2-chloro-6-methylphenyl)-2-((6-(4-((3-(2-(2,6-dioxopiperidin-3-yl)-6-fluoro-1,3-dioxoisoindolin-5-yl)-3,8-diazabicyclo[3.2.1]octan-8-yl)methyl)piperidin-1-yl)-2-methylpyrimidin-4-yl)amino)thiazole-5-carboxamide], the pIC50 was 6.30 to 7.00 with Daudi, ≥ 7.30 in the assay on TMD8, 7.00 to 7.30 in the assay with Kasumi-1 and ≥ 7.30 in the assay with SU-DHL-6.
Take `Cc1nc(Nc2ncc(C(=O)Nc3c(C)cccc3Cl)s2)cc(N2CCC(CN3C4CC3CN(c3cc5c(cc3F)C(=O)N(C3CCC(=O)NC3=O)C5=O)C4)CC2)n1` (stereo not shown) [GT-03538, N-(2-chloro-6-methylphenyl)-2-((6-(4-((3-(2-(2,6-dioxopiperidin-3-yl)-6-fluoro-1,3-dioxoisoindolin-5-yl)-3,6-diazabicyclo[3.1.1]heptan-6-yl)methyl)piperidin-1-yl)-2-methylpyrimidin-4-yl)amino)thiazole-5-carboxamide]: the pIC50 in the assay with Daudi is 6.30 to 7.00; with TMD8, ≥ 7.30; with Kasumi-1 it was 6.30 to 7.00; with SU-DHL-6, ≥ 7.30.
Take `Cc1nc(Nc2ncc(C(=O)Nc3c(C)cccc3Cl)s2)cc(N2CCC(CN3C4CC3CN(c3ccc5c(c3)C(=O)N(C3CCC(=O)NC3=O)C5=O)C4)CC2)n1` (stereo not shown) [GT-03631, N-(2-chloro-6-methylphenyl)-2-((6-(4-((3-(2-(2,6-dioxopiperidin-3-yl)-1,3-dioxoisoindolin-5-yl)-3,6-diazabicyclo[3.1.1]heptan-6-yl)methyl)piperidin-1-yl)-2-methylpyrimidin-4-yl)amino)thiazole-5-carboxamide]: the pIC50 is 6.30 to 7.00 in the assay on Daudi, 6.30 to 7.00 with Kasumi-1 and ≥ 7.30 with SU-DHL-6.
`Cc1nc(Nc2ncc(C(=O)Nc3c(C)cccc3Cl)s2)cc(N2CCC(CN3C4CCC3CN(c3ccc5c(c3)C(=O)N(C3CCC(=O)NC3=O)C5=O)C4)CC2)n1` (stereo not shown) [GT-03632, N-(2-chloro-6-methylphenyl)-2-((6-(4-((3-(2-(2,6-dioxopiperidin-3-yl)-1,3-dioxoisoindolin-5-yl)-3,8-diazabicyclo[3.2.1]octan-8-yl)methyl)piperidin-1-yl)-2-methylpyrimidin-4-yl)amino)thiazole-5-carboxamide]: the pIC50 in the assay with Daudi was 7.00 to 7.30; in the assay with Kasumi-1, ≥ 7.30; in the assay with SU-DHL-6, ≥ 7.30.

The values above are taken from patent US20250243210A1, “CRBN E3 LIGASE LIGAND COMPOUND, PROTEIN DEGRADER DEVELOPED BASED THEREON AND THEIR APPLICATIONS” (GLUETACS THERAPEUTICS (SHANGHAI) CO., LTD., priority 2021, published 2025).
